Assay results: patent EP4752142A1, “5-HT2A RECEPTOR AGONIST, AND PREPARATION METHOD THEREFOR AND USE THEREOF” (Innovstone Therapeutics Limited, priority 2023, dated 2025)
Where two headings read alike, the source gives them in different places.

Tests used:
5-HT2A receptor [1] = biological target: T1, 5-HT2A receptor (Homo sapiens, UniProt P28223); test: 5-HT2AR calcium flux activation assay; format: cell-based; set-up: expressed in transfected cells; host or cells: HEK293; conditions: for Emax: Max Dose 100000 nM
Procedure: • 1) For cultured cells (HEK293 cells stably expressing human 5-HT2A receptor), they were first washed twice with pre-warmed DPBS, then an appropriate amount of trypsin was added for digestion at 37°C for 1 minute; an appropriate amount of the culture medium was then added to stop digestion, and 1 mL was taken for counting and vitality determination using Vi-CELL™. • 2) Cells were centrifuged at 1000 rpm for 5 minutes. • 3) The supernatant was gently discarded, being careful not to disturb the cell pellet. • 4) Cells were diluted with the culture medium to 1×10^6 cells/mL (20,000 cells/20 µL) and seeded into 384-well poly-lysine coated cell plates. They were cultured at 37°C under 5% CO2 for 16-20 hours.
• 1) Preparation of 250 mM Probenecid solution: According to the kit instructions, 77 mg of probenecid was added to 1 mL of FLIPR buffer salt solution. Prepared fresh for immediate use. • 2) Preparation of Fluo-4 Direct™ (2×, 8 µM) loading buffer: According to the kit instructions, the required amount of Fluo-4 Direct™ was thawed in advance. 10 mL of FLIPR buffer salt solution and 0.2 mL of 250 mM Probenecid solution were added to each vial. It was vortexed in the dark for >5 minutes. Prepared fresh for immediate use.
• 1) Preparation of control and test compound plates: Compounds were gradient diluted to 10 points using Echo, and 750 nL was transferred to the corresponding compound plate. • 2) 30 µL of assay buffer salt solution was added to the corresponding compound plate, which was then centrifuged at 1000 rpm for 1 minute; • 3) The cell plate prepared the day before was taken from the incubator, and 20 µL of 2× Fluo-4 Direct™ buffer was added to each well, making a total volume of 40 µL. • 4) The plate was incubated in a 5% CO2, 37°C incubator for 50 minutes, then left at room temperature for 10 minutes. • 5) The compound plate, the cell plate, and pipette tips were placed into the instrument; • 6) The FLIPR instrument software was run according to the set program, adding 10 µL of the specified concentrations of test compounds and control compounds to the cell plate, and fluorescence signals were read. After reading, data was exported using the "Max-Min", "Read 1 to 90" method in the software. • 7) Data analysis: Agonist Activation% = (RLU−DMSO)/(HC−DMSO)*100 [formula] • RLU: Relative Light Units, read values 1 to 90; • HC: Average fluorescence signal of the highest concentration point of the agonist; • DMSO: Average fluorescence signal of the DMSO group; • 8) Data was fitted using Prism 5.0.
For agonist: EC50 was fitted using "log(agonist) vs. response -- Variable slope". Table 2: 5-HT2AR Calcium Flux Activation Assay

5-HT2A receptor [2] = biological target: T1, 5-HT2A receptor; test: 5-HT2A receptor isotope competition affinity assay; format: binding
Procedure: A radiolabeled ligand (agonist or antagonist) incubated with receptor protein could form a receptor-ligand complex. An added test compound could compete with the isotopically labeled ligand for the receptor binding, eventually forming a relative steady-state equilibrium. The affinity of the test compound for the receptor was indirectly evaluated by measuring the dissociation of the isotopically labeled ligand from the receptor.
A 100x serial gradient dilution of compounds was prepared in DMSO, starting from 1 mM with 4-fold serial dilutions, resulting in 10 concentration points. Using a pipettor, 1 µL of each gradient concentration of the test compound (final concentration starting at 10 µM, 4-fold serial dilutions, 10 concentration points) was transferred to a 96-well assay plate, to each well of which 49 µL of 5-HT2A receptor protein (102 µg/mL, prepared in an assay buffer: 50 mM Tris-HCl, pH 7.4) had been added in advance (final concentration 5 µg/well). This was followed by the addition of 50 µL of isotopically labeled [^3H]-Ketanserin (2 nM, 2× final concentration, prepared in the assay buffer). The plate was sealed and incubated on a shaker at room temperature for 1 hour. The reaction mixture was filtered through a Unifilter-96 GF/C filter plate pre-treated with 0.3% PEI. The filter plate was washed with a precooled (4°C) assay buffer and then dried in an incubator at 50°C. A scintillation liquid was added, and the plate was read using a MicroBeta2 instrument. The percentage inhibition was calculated using the equation: %Inhibition=(CountHigh Signal Control-CountSample)/(CountHigh Signal Control-CountLow Signal Control)*100. A four-parameter logistic fit was used to calculate the IC50 value. High Signal Control: No compound group (the same volume of DMSO substituted). Low Signal Control: Ketanserin group (non-isotopically labeled, 2× final concentration). Table 1: Results of 5-HT2A receptor isotope competition affinity assay, Ki Values

Mice (strain C57BL/6) [3] = test: Head-twitch response test in mice; format: in vivo; conditions: reflects hallucinogenic effect, Figure 1
Procedure: (§1) • 1. Assay conditions and materials: • 1.1 Animal source: Mice (strain C57BL/6, purchased from Shanghai Lingchang Biotechnology Co., Ltd., 8-9 weeks old, 20-24 grams, male) • 1.2 Conditions: Temperature (20-25°C), relative humidity (40-70%), light cycle (12-hour light cycle (7:00-19:00)), free access to food and water • 1.3 Marking: Animals were marked on the tail. • 2. Assay procedure:
• A) Adaptation: Starting from the second day after the animals arrived, they were conciliated by stroking and acclimated for seven consecutive days to reduce their stress response. • B) Grouping: One hour before the assay test, animals were placed in the testing room for adaptation. On the test day, animals were randomly grouped according to body weight. Each group contained 12 animals. • C) Assay Dosing: Animal body weight was measured, and compounds were administered according to the group, with a dosing volume of 10 mL/kg for all. • D) Testing: After dosing, animals were placed in transparent observation chambers, and head-twitch behaviors were recorded over 60 minutes. • E) Assay test indicator: Total number of head-twitches within 60 minutes after dosing.

Mice (strain C57BL/6) [4] = test: Forced swim test in naive mice 7 days after single administration; format: in vivo; conditions: compared to vehicle control group, p<0.05, Figure 2
Procedure: as §1
• A) Adaptation: Starting from the second day after the animals arrived, they were conciliated by stroking and acclimated for seven consecutive days to reduce their stress response. • B) Behavioral test (FST test): Compound and Psilocybin groups (15 animals per group) continued to be housed for 7 days after dosing. On day 7, the Ketamine group (15 animals per group) was dosed 30 minutes before being placed, together with the compound and Psilocybin groups, into forced swim observation chambers for 6 minutes. Immobility time during the last 4 minutes was calculated. • C) Assay test indicator: Immobility time of animals during 2-6 minutes of the forced swim test.

[5] = HEK293 cells stably expressing human 5-HT2A receptor, FLIPR, Fluo-4, read-out: EC50
[6] = HEK293 cells stably expressing human 5-HT2A receptor
[7] = competition with [3H]-Ketanserin, 1 hour, room temperature, read-out: 5-HT2A receptor/Ki

T1 sequence (P28223 whole entry): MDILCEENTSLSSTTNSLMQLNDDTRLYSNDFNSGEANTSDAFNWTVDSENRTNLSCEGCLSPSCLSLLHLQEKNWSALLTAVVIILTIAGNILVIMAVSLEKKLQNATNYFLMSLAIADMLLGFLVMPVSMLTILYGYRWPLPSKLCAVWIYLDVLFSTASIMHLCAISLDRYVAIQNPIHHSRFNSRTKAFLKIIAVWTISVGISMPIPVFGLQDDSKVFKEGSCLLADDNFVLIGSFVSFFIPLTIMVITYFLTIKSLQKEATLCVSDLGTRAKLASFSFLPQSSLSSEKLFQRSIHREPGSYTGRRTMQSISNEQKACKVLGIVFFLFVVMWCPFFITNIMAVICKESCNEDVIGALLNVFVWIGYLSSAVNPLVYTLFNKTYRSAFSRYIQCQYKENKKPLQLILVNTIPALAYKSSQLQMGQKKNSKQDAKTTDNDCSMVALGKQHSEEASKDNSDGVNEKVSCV

Compound	EC50 (5-HT2A receptor [1]; [5]) [µM]	Emax (5-HT2A receptor [1]; [6]) [%]	Ki (5-HT2A receptor [2]; [7]) [µM]	further results
Cc1nn(CCCN2CCC(c3c[nH]c4cccc(O)c34)C2)nc1C (racemic) [Compound 127]	0.00394	53.4	–	–
COc1ccccc1CCCN1CCC(c2c[nH]c3cccc(O)c23)C1 (stereo not shown) [Compound 2]	0.0169	51.5	< 0.1	–
c1ccc2c(C3CCN(CCCc4ncon4)C3)c[nH]c2c1 (stereo not shown) [Compound 49, 3-(1-[3-(1,2,4-oxadiazol-3-yl)propyl]pyrrolidin-3-yl)-1H-indole]	0.034	47.6	< 0.1	Total number of head-twitches within 60 minutes after dosing (Mice (strain C57BL/6) [3]; dose 30 mpk): did not cause significant head-twitch behavior
Cc1nonc1CCCN1CCC(c2c[nH]c3ccccc23)C1 (stereo not shown) [Compound 54, 3-(1-(3-(4-methyl-1,2,5-oxadiazol-3-yl)propyl)pyrrolidin-3-yl)-1H-indole]	0.0865	46.7	< 0.1	–
Oc1cccc2[nH]cc(C3CCN(CCCc4ncsn4)C3)c12 (stereo not shown) [Compound 56]	0.0086	67.7	< 0.1	–
Cn1cc(CCCN2CCC(c3c[nH]c4cccc(O)c34)C2)cn1 (stereo not shown) [Compound 60]	0.0333	29.9	< 0.1	–
Cc1nc(C)n(CCCN2CCC(c3c[nH]c4ccccc34)C2)n1 (stereo not shown) [Compound 122, 3-(1-(3-(3,5-dimethyl-1H-1,2,4-triazol-1-yl)propyl)pyrrolidin-3-yl)-1H-indole]	0.0248	38.6	< 0.1	–
c1ccc2c(C3CCN(CCCn4nccn4)C3)c[nH]c2c1 (stereo not shown) [Compound 125, 3-(1-(3-(2H-1,2,3-triazol-2-yl)propyl)pyrrolidin-3-yl)-1H-indole]	0.0231	62.9	< 0.1	–
Cc1cnn(CCCN2CCC(c3c[nH]c4ccccc34)C2)n1 (stereo not shown) [Compound 126]	0.0277	49.7	–	–
CC(C)c1cnn(CCCN2CCC(c3c[nH]c4cccc(O)c34)C2)n1 (stereo not shown) [Compound 128]	0.00709	63.1	–	–
Oc1cccc2[nH]cc(C3CCN(CCc4coc5ccccc45)C3)c12 (stereo not shown) [Compound 134]	0.0433	68.8	< 0.1	–
c1ccc2c(C3CCN(CCc4nnc5ccccn45)C3)c[nH]c2c1 (stereo not shown) [Compound 142, 3-(1-(2-((1,2,4)triazolo(4,3-a)pyridin-3-yl)ethyl)pyrrolidin-3-yl)-1H-indole]	–	41.9	–	Ki (5-HT2A receptor [2]): < 0.1 µM; EC50 (5-HT2A receptor [1]): 0.0459 µM
c1ccc2c([C@H]3CCN(CCCc4ncon4)C3)c[nH]c2c1 [Compound 171, (R)-3-(1-[3-(1,2,4-oxadiazol-3-yl)propyl]pyrrolidin-3-yl)-1H-indole]	0.0635	40.2	–	–
Oc1cccc2[nH]cc(C3CCN(CCCn4nccn4)C3)c12 (stereo not shown) [Compound 180, 3-(1-(3-(2H-1,2,3-triazol-2-yl)propyl)pyrrolidin-3-yl)-1H-indol-4-ol]	0.00995	59.3	< 0.1	Total number of head-twitches within 60 minutes after dosing (Mice (strain C57BL/6) [3]; dose 30 mpk): did not cause significant head-twitch behavior; Immobility time of animals during 2-6 minutes of the forced swim test (Mice (strain C57BL/6) [4]): significantly reduced immobility time
Oc1cccc2[nH]cc([C@@H]3CCN(CCCn4nccn4)C3)c12 [Compound 182, (S)-3-(1-(3-(2H-1,2,3-triazol-2-yl)propyl)pyrrolidin-3-yl)-1H-indol-4-ol]	0.0211	57.4	< 0.1	Total number of head-twitches within 60 minutes after dosing (Mice (strain C57BL/6) [3]; dose 30 mpk): did not cause significant head-twitch behavior
Oc1cc(F)cc2[nH]cc(C3CCN(CCCn4nccn4)C3)c12 (stereo not shown) [Compound 184, 6-fluoro-3-(1-[3-(2H-1,2,3-triazol-2-yl)propyl]pyrrolidin-3-yl)-1H-indol-4-ol]	–	52.4	–	Ki (5-HT2A receptor [2]): < 0.1 µM; EC50 (5-HT2A receptor [1]): 0.00872 µM
Cc1nn(CCCN2CC[C@@H](c3c[nH]c4cccc(O)c34)C2)nc1C [Compound 186, (S)-3-(1-(3-(4,5-dimethyl-2H-1,2,3-triazol-2-yl)propyl)pyrrolidin-3-yl)-1H-indol-4-ol]	–	–	< 0.1	–
Cc1cnn(CCCN2CCC(c3c[nH]c4cccc(O)c34)C2)n1 (stereo not shown) [Compound 187, 3-(1-(3-(4-methyl-2H-1,2,3-triazol-2-yl)propyl)pyrrolidin-3-yl)-1H-indol-4-ol]	0.00417	63.7	< 0.1	–
Oc1cccc2[nH]cc(C3CCN(CCCn4ncc(C5CC5)n4)C3)c12 (stereo not shown) [Compound 188, 3-(1-(3-(4-cyclopropyl-2H-1,2,3-triazol-2-yl)propyl)pyrrolidin-3-yl)-1H-indol-4-ol]	–	48.5	–	Ki (5-HT2A receptor [2]): < 0.1 µM; EC50 (5-HT2A receptor [1]): 0.0107 µM
c1ccc2c(C3CCN(CCCn4nccn4)C3)n[nH]c2c1 (stereo not shown) [Compound 189, 3-(1-(3-(2H-1,2,3-triazol-2-yl)propyl)pyrrolidin-3-yl)-1H-indazole]	–	–	< 0.1	–
COc1cc(CC(C)N)c(OC)cc1I (stereo not shown) [DOI, reference compound]	–	–	–	Total number of head-twitches within 60 minutes after dosing (Mice (strain C57BL/6) [3]; dose 3 mpk): significant head-twitch behavior
Cc1cc(CCN2CCC(c3c[nH]c4cccc(F)c34)CC2)n[nH]1 [reference compound]	> 100	0.9	–	–
c1ccc2c(C3CCN(CCCn4nccn4)CC3)c[nH]c2c1 [reference compound]	> 100	25.5	–	–
